This is an account of results in patent publication US20250346585A1 (Alexion Pharmaceuticals, Inc., priority 2022, published 2025).

Where only a bound is given, the exact number is not on record here.

Chain of Human complement C1s enzyme (P09871 438-688 limits assumed): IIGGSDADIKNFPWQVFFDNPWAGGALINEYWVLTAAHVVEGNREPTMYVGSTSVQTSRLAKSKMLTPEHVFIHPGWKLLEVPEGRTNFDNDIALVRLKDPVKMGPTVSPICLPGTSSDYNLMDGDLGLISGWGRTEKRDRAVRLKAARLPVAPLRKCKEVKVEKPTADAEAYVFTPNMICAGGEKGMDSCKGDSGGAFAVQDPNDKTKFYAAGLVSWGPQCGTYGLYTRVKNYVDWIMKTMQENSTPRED
Chain of Human complement C1s enzyme (P09871 16-437 partner limits assumed): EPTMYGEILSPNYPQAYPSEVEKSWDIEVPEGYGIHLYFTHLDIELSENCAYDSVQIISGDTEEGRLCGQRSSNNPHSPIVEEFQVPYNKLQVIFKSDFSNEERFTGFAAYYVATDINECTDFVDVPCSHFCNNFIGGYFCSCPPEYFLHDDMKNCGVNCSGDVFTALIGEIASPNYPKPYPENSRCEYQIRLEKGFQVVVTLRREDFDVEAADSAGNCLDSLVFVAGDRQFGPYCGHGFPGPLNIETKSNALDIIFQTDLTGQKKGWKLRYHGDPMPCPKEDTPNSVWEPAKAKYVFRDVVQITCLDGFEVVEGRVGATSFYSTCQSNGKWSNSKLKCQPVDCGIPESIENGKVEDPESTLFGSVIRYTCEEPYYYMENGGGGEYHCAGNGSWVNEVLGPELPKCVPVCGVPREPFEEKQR

The assay concerns the target Human complement C1s enzyme (Homo sapiens (Human), UniProt P09871). Put plainly: Human C1s enzyme assay. The class given is biochemical. The following applies: Human complement C1s enzyme 1.16 nM, substrate Z-L-Lys-SBzl 100 μM, assay of Example 3; read-out: IC50 (Stars). An outline of the steps:
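IC50 derived by nonlinear regression of rate versus concentration, with rate taken from A405 kinetics (30 s intervals, 30 min) after adding 100 μM each Z-L-Lys-SBzl and DTNB. C1s from human serum, 1.16 nM, exposed to compound for 5 min at RT beforehand; buffer 50 mM Tris, 1 M NaCl, pH 7.5.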
The IC50 is the point on the concentration scale where inhibition reaches its midpoint. With `Cc1ccccc1[C@H]1C[C@@H](C(=O)N[C@H](C)c2cc(C(=N)N)cs2)N(C(=O)CNC(=O)c2ccc3oc4ccccc4c3c2)C1` [Compound 236, (2S,4R)—N—((R)-1-(4-carbamimidoylthiophen-2-yl)ethyl)-1-((dibenzo[b,d]furan-2-carbonyl)glycyl)-4-(o-tolyl)pyrrolidine-2-carboxamide], the IC50 was < 100 nM.
For `Cc1cc2c(cc1C(=O)NCC(=O)N1CC3(C[C@H]1C(=O)N[C@H](C)c1cc(C(=N)N)cs1)OCCO3)-c1ccccc1C2(F)F` [Compound 237, (S)—N—((R)-1-(4-carbamimidoylthiophen-2-yl)ethyl)-7-((9,9-difluoro-2-methyl-9H-fluorene-3-carbonyl)glycyl)-1,4-dioxa-7-azaspiro[4.4]nonane-8-carboxamide], the IC50 is < 100 nM.
For the compound `CCS(=O)(=O)[C@@H]1C[C@@H](C(=O)N[C@H](C)c2cc(C(=N)N)cs2)N(C(=O)CNC(=O)c2ccc3c(c2)-c2ccccc2C3(F)F)C1` [Compound 238, (2S,4R)—N—((R)-1-(4-carbamimidoylthiophen-2-yl)ethyl)-1-((9,9-difluoro-9H-fluorene-3-carbonyl)glycyl)-4-(ethylsulfonyl)pyrrolidine-2-carboxamide], the IC50 is < 100 nM.
Under `C[C@@H](NC(=O)[C@@H]1C[C@@H](S(C)(=O)=O)CN1C(=O)CNC(=O)c1ccc2cc3ccccc3cc2c1)c1cc(C(=N)N)cs1` [Compound 239, (2S,4R)-1-((anthracene-2-carbonyl)glycyl)-N—((R)-1-(4-carbamimidoylthiophen-2-yl)ethyl)-4-(methylsulfonyl)pyrrolidine-2-carboxamide] stands < 100 nM; under `Cc1ccc(-c2ccc3c(c2)CN(CC(=O)N2CC4(C[C@H]2C(=O)NCc2cc(C(=N)N)cs2)OCCO4)C3=O)c(C)c1` [Compound 240, (S)—N-((4-carbamimidoylthiophen-2-yl)methyl)-7-(2-(5-(2,4-dimethylphenyl)-1-oxoisoindolin-2-yl)acetyl)-1,4-dioxa-7-azaspiro[4.4]nonane-8-carboxamide], < 100 nM; under `COc1cccc(F)c1-c1ccc(C(=O)NCC(=O)N2CC3(C[C@H]2C(=O)NCc2cc(C(=N)N)cs2)OCCO3)cc1` [Compound 241, (S)—N-((4-carbamimidoylthiophen-2-yl)methyl)-7-((2′-fluoro-6′-methoxy-[1,1′-biphenyl]-4-carbonyl)glycyl)-1,4-dioxa-7-azaspiro[4.4]nonane-8-carboxamide], < 100 nM.
`N=C(N)c1csc(CNC(=O)[C@@H]2CC3(CN2C(=O)CNC(=O)c2ccc(-c4ccc(C(=O)O)cc4F)cc2)OCCO3)c1` [Compound 242, (S)-4′-((2-(8-(((4-carbamimidoylthiophen-2-yl)methyl)carbamoyl)-1,4-dioxa-7-azaspiro[4.4]nonan-7-yl)-2-oxoethyl)carbamoyl)-2-fluoro-[1,1′-biphenyl]-4-carboxylic acid]: the IC50 was < 100 nM.
Under `CO[C@@H]1C[C@@H](C(=O)NCc2cc(NC(=O)CNC(=O)c3ccc(Oc4ccc(F)cc4)cc3)cs2)N(C(=O)CNC(=O)c2ccc(Oc3ccc(F)cc3)cc2)C1` [Compound 243, (2S,4R)-N-((4-(2-(4-(4-fluorophenoxy)benzamido)acetamido)thiophen-2-yl)methyl)-1-((4-(4-fluorophenoxy)benzoyl)glycyl)-4-methoxypyrrolidine-2-carboxamide] stands > 1000 nM; under `Nc1csc(CNC(=O)[C@@H]2CC3(CN2C(=O)CNC(=O)c2ccc(Oc4ccc(F)cc4)cc2)OCCO3)c1` [Compound 244, (S)—N-((4-aminothiophen-2-yl)methyl)-7-((4-(4-fluorophenoxy)benzoyl)glycyl)-1,4-dioxa-7-azaspiro[4.4]nonane-8-carboxamide], > 1000 nM; under `N=C(N)c1csc(CNC(=O)[C@@H]2CC3(CN2C(=O)CN2CCc4cc(-c5ccc(F)cc5F)ccc4C2=O)OCCO3)c1` [Compound 245, (S)—N-((4-carbamimidoylthiophen-2-yl)methyl)-7-(2-(6-(2,4-difluorophenyl)-1-oxo-3,4-dihydroisoquinolin-2(1H)-yl)acetyl)-1,4-dioxa-7-azaspiro[4.4]nonane-8-carboxamide], < 100 nM.
The result for `COC(=O)/N=C(/N)c1csc([C@@H](C)NC(=O)[C@@H]2C[C@@H](OC(F)F)CN2C(=O)CNC(=O)c2ccc3c(c2)-c2ccccc2C3(F)F)c1` [Compound 247, methyl ((E)-amino(5-((R)-1-((2S,4R)-1-((9,9-difluoro-9H-fluorene-3-carbonyl)glycyl)-4-(difluoromethoxy)pyrrolidine-2-carboxamido)ethyl)thiophen-3-yl)methylene)carbamate] reads < 100 nM; that for `C[C@@H](NC(=O)[C@@H]1C[C@@H](Oc2ccccc2)CN1C(=O)CNC(=O)c1ccc2oc3ccccc3c2c1)c1cc(C(=N)N)cs1` [Compound 248, (2S,4R)—N—((R)-1-(4-carbamimidoylthiophen-2-yl)ethyl)-1-((dibenzo[b,d]furan-2-carbonyl)glycyl)-4-phenoxypyrrolidine-2-carboxamide], < 100 nM; that for `CCCCCCOC(=O)/N=C(/N)c1csc([C@@H](C)NC(=O)[C@@H]2C[C@](F)(COC)CN2C(=O)CNC(=O)c2ccc3c(c2)-c2ccccc2C3(F)F)c1` [Compound 249, hexyl ((E)-amino(5-((R)-1-((2S,4R)-1-((9,9-difluoro-9H-fluorene-3-carbonyl)glycyl)-4-fluoro-4-(methoxymethyl)pyrrolidine-2-carboxamido)ethyl)thiophen-3-yl)methylene)carbamate], < 100 nM.
The result for `COC(=O)/N=C(/N)c1csc([C@@H](C)NC(=O)[C@@H]2C[C@](F)(CF)CN2C(=O)CNC(=O)c2ccc3c(c2)-c2ccccc2C3(F)F)c1` [Compound 250, methyl ((E)-amino(5-((R)-1-((2S,4R)-1-((9,9-difluoro-9H-fluorene-3-carbonyl)glycyl)-4-fluoro-4-(fluoromethyl)pyrrolidine-2-carboxamido)ethyl)thiophen-3-yl)methylene)carbamate] reads < 100 nM; that for `N=C(N)c1csc(CCNC(=O)[C@@H]2CC3(CN2C(=O)CNC(=O)c2ccc4c(c2)-c2ccccc2C4(F)F)OCCO3)c1` [Compound 251, (S)—N-(2-(4-carbamimidoylthiophen-2-yl)ethyl)-7-((9,9-difluoro-9H-fluorene-3-carbonyl)glycyl)-1,4-dioxa-7-azaspiro[4.4]nonane-8-carboxamide], < 100 nM; that for `C[C@@H](NC(=O)[C@@H]1C[C@@H]([S@@](C)(=N)=O)CN1C(=O)CNC(=O)c1ccc2c(c1)-c1ccccc1C2(F)F)c1cc(C(=N)N)cs1` [Compound 252, (2S,4R)—N—((R)-1-(4-carbamimidoylthiophen-2-yl)ethyl)-1-((9,9-difluoro-9H-fluorene-3-carbonyl)glycyl)-4-((S)—S-methylsulfonimidoyl)pyrrolidine-2-carboxamide], < 100 nM.
For `CCCCCCOC(=O)/N=C(/N)c1csc([C@@H](C)NC(=O)[C@@H]2C[C@](F)(CF)CN2C(=O)CNC(=O)c2ccc3c(c2)-c2ccccc2C3(F)F)c1` [Compound 253, hexyl ((E)-amino(5-((R)-1-((2S,4R)-1-((9,9-difluoro-9H-fluorene-3-carbonyl)glycyl)-4-fluoro-4-(fluoromethyl)pyrrolidine-2-carboxamido)ethyl)thiophen-3-yl)methylene)carbamate], the IC50 is < 100 nM.
